Assay results from patent US8716355B2, “Hydroxylated tolans and related compounds in the treatment of a cancer” (Kent State University, priority 2007, dated 2014).
Values joined by “and” are separate entries in the source; they are usually repeats but may differ in a detail not shown here. Identical values can stand only once. Like-named read-outs stand apart in the source and are kept apart here.

Experiments:
ovarian cancer = experiment: Ovarian cancer patients (Example VIII D); type: in vivo, human; settings: daily gelatin capsule 200 mg
Procedure: A study is carried out in a group of 40 women with ovarian cancer of various grades to determine the effect of treatment with compounds of KST-201, KST-213, KST-301 and KST-401. The administration protocol involves daily administration of a gelatin capsule containing 200 mg of active compound.

T24 = experiment: MTT cytotoxicity, T24 bladder cancer cells; type: cell-based, human
Procedure: As a first step, the antitumor activity of the tolans was assessed against a panel of three cancer cells lines that produce solid tumors upon implantation into animals. DU145 is an androgen-independent prostate cancer cells. T24 is a transitional cell bladder carcinoma cell. MDAH2274 (“MDAH) is an endometroid ovarian adenocarcinoma cell. To assess the selectivity of this antitumor activity, the toxicity of the tolans to normal human fibroblasts (MHRF) was examined.
Cell killing was evaluated using the colorimetric MTT assay. The assay measures the formation of a colored product from a chromogenic precursor, the tetrazole 3-[4,5-dimethylthiazol-2-yl]-2,5 diphenyltetrazolium bromide (MTT). The yellow MTT is reduced to purple formazan in the mitochondria of living cells. A solubilization solution (typically dimethyl sulfoxide or sodium dodecyl sulfate in dilute hydrochloric acid) is added to dissolve the insoluble purple formazan product into a colored solution. The absorbance of this colored solution is quantified by measuring at a certain wavelength (usually between 500 and 600 nm) by a spectrophotometer. […] This MTT assay is used widely to assess the cytotoxicity and selectivity of compounds such as anti-cancer drugs. The assay is suitable for rapid toxicity characterization of a test agent such as a drug formulation. […] A lower CD50 indicates a greater cytotoxic activity (as a lower amount of the agent is needed to achieve a fixed level of cytotoxicity). Two agents can be compared by examining the fold-increase or decrease in their CD50 values. […]

Vero cells = experiment: Cytotoxicity (CD50) on Vero cells; type: cell-based; settings: 48 hours of exposure
Source text: See Example II for tumor cell cytotoxicity of these compounds. […] NAB group 32 contains two compounds, Tolan-2 (also designated herein as KST-201) and Stil-2. Based on the NAB, they were classified as topological isomers. However, chemically they differ because Stil-2, a […], contained a double bonded linker, while Tolan-2 contained a triple bonded linker. The cytotoxicity of the two molecules on Vero cells differed markedly: Tolan-2 was less toxic than Stil-2.

NCIH460 = experiment: MTT cytotoxicity, NCIH460 lung; type: cell-based; settings: Homo sapiens, NCI-H460, 72 h; 3 Days; read-out: CD50 (μM) NCIH460
Procedure: (§1) Cell killing was evaluated using the colorimetric MTT assay. The assay measures the formation of a colored product from a chromogenic precursor, the tetrazole 3-[4,5-dimethylthiazol-2-yl]-2,5 diphenyltetrazolium bromide (MTT). The yellow MTT is reduced to purple formazan in the mitochondria of living cells. A solubilization solution (typically dimethyl sulfoxide or sodium dodecyl sulfate in dilute hydrochloric acid) is added to dissolve the insoluble purple formazan product into a colored solution. The absorbance of this colored solution is quantified by measuring at a certain wavelength (usually between 500 and 600 nm) by a spectrophotometer. The amount of purple formazan product generated is proportional to the number of viable cells (Mosmann, T., 1983, J. Immunol. Meth. 65:55-63; Wilson, A. P., Cytotoxicity and Viability Assays. In: Animal Cell Culture: A Practical Approach, 3rd ed. (Masters, J R W, ed.) Oxford University Press: Oxford, Vol. 1, pp. 175-219. 2000). This MTT assay is used widely to assess the cytotoxicity and selectivity of compounds such as anti-cancer drugs. The assay is suitable for rapid toxicity characterization of a test agent such as a drug formulation. […] A lower CD50 indicates a greater cytotoxic activity (as a lower amount of the agent is needed to achieve a fixed level of cytotoxicity). […]

DU145 cells = experiment: Flow cytometric cell cycle analysis of DU145 cells; type: cell-based, human
Procedure: Initially, the mechanism(s) responsible for the antitumor activity of KST-201 were tested in the DU145 cell line. […] The cell cycle distribution of sham-treated (FIG. 4, upper left) DU145 cells or DU145 cells treated with KST-201 at 14 μM (FIG. 4, upper right), 28 μM (FIG. 4, lower left) or 56 μM (FIG. 4, lower right) were determined by flow cytometry.

HCT116 = experiment: MTT cytotoxicity, HCT116 colon; type: cell-based; settings: Homo sapiens, HCT-116, 72 h; 3 Days; read-out: CD50 (μM) HCT116
Procedure: as §1

breast cancer = experiment: Breast cancer prevention, skin patch (Example VIII C); type: in vivo, human; settings: transdermal patch 10 mg to 100 mg daily, one-year study
Procedure: This study investigates whether KST-201, KST-213, KST-301 and KST-401 administered transdermally each day through a skin patch aid in preventing breast cancer or metastatic cancer following cancer therapy. Patches are prepared with a lipophilic carrier which is readily absorbed through the skin (glycerol cold cream containing glycerin and peanut oil). The HT compound is mixed with the lipophilic cream such that each patch comprises 10 mg to 100 mg of active compound. The patch is applied to the skin each day, and rapid absorption occurs. After two hours, the patch is removed.

HSV-1 = HSV-1 replication in infected Vero cells (plaque assay); type: cell-based, Herpes Simplex Virus-Type 1; settings: for IC50: Human alphaherpesvirus 1, Vero, read-out: IC50, concentration at which 50% of HSV-1 replication was inhibited
Procedure: For this purpose HSV-1 replication at 24, 48 and 72 h was examined in the presence or absence of varying concentrations of the polyphenol.
The SI is the ratio of the CD50 divided by a selected inhibitory concentration (IC %).
Viral inhibition by Tolan-3 appeared to occur after viral entry into cells. […] Subsequently, the compound was removed and replaced with culture medium alone, and the incubated continued for 48 or 72 more hrs. In a second experiment, HSV-1 infected Vero cells were incubated with 350 μM Tolan-3 for 48 h. Thereafter, the Tolan-3 was removed and replaced by medium and the incubation continued for an additional 24 h. Viral titers were calculated by a standard plaque assay.

[1] = MTT, 1 day incubation, read-out: CD50 against T24, compound tested individually

Question: What does the source list for `Oc1ccc(C#Cc2ccc(O)cc2)cc1` [KST-201, 4,4′-dihydroxytolan]?
Answer: Rate of production of ovarian cancer markers (Muc-1, Sp17) (ovarian cancer): significant decrease; Tumor growth during study period (ovarian cancer): Tumors regress or show no further growth; Fold more potent in killing T24 cells vs. control MHRF fibroblasts (T24): 18 fold; IC50 (T24; Homo sapiens, T-24, 24 h, VC:KST-201 200:1, 1 day, read-out: CD50 (μM) of each Compound tested in combination, T24): 3.19 µM; IC50 (T24; Homo sapiens, T-24, 48 h, VC:KST-201 200:1, 2 days, read-out: CD50 (μM) of each Compound tested in combination, T24): 3.17 µM; IC50 (T24; Homo sapiens, T-24, 72 h, MTT, 3 days incubation, read-out: CD50 against T24): 8.5 µM; IC50 (T24; [1]): 83 µM and 82.6 µM; IC50 (T24; MTT, 2 days incubation, read-out: CD50 against T24, compound tested individually): 31.1 ± 0.81 µM; Fold more toxic to T24 bladder cancer cells than resveratrol (T24; Table 15 vs Table 14): 2.8 fold; Increase of cytotoxic potency when given together, T24 (T24; VC:KST-201 200:1): about 7 fold; CD50 (Vero cells): 106 µM; Log CD50 (Vero cells): 2.03; IC50 (NCIH460): 42 ± 2 µM; Phase of Cell Cycle S (DU145 cells; 14 μM, untreated 40): 28; Phase of Cell Cycle G0/G1 (DU145 cells; 14 μM, untreated 46): 72; Phase of Cell Cycle G0/G1 (DU145 cells; 28 μM): 77; Phase of Cell Cycle G2/M (DU145 cells; 28 μM): 3; Phase of Cell Cycle S (DU145 cells; 28 μM): 20; Phase of Cell Cycle G0/G1 (DU145 cells; 56 μM): 78; Phase of Cell Cycle G2/M (DU145 cells; 56 μM): 4; Phase of Cell Cycle S (DU145 cells; 56 μM): 18; Effect on cell cycle (in words) (DU145 cells; 14, 28 and 56 μM): G0/G1-S cell cycle arrest; IC50 (HCT116): 129 ± 4 µM; Breast cancer or metastatic cancer in high-risk group (breast cancer): does not show any evidence of breast cancer or other metastatic cancer; SI50 (selectivity index, CD50 divided by IC50) (HSV-1; 48 h post-infection): 6.8; IC50 (HSV-1): 15.6 µM; Effect on HSV-1 viral replication in Vero cells (in words) (HSV-1; at CD50, 75% and 50% of CD50, 24, 48, 72 h): significant anti-HSV activity

Question: With `Oc1ccc(/C=C/c2cc(O)cc(O)c2)cc1` [Resveratrol, 3,5,4′-trihydroxy-trans-stilbene, reference compound] as the compound, how does the IC50 (T24; Homo sapiens, T-24, 24 h, MTT, 1 day incubation, read-out: CD50 against T24, compound tested individually) read?
Answer: 36 µM

Question: And the IC50 (T24; Homo sapiens, T-24, 48 h, MTT, 2 days incubation, read-out: CD50 against T24, compound tested individually)?
Answer: 29.1 ± 0.05 µM

Question: And the IC50 (T24; [1])?
Answer: 35.7 ± 1 µM

Question: And the IC50 (T24; MTT, 3 days incubation, listed as resveratrol, read-out: CD50 against T24)?
Answer: 23 µM

Question: What about the IC50 (T24; MTT, 3 days incubation, read-out: CD50 against T24) of the same compound?
Answer: 22.6 ± 0.25 µM

Question: And the CD50 (Vero cells)?
Answer: 264 µM

Question: And the “Log CD50” value (Vero cells)?
Answer: 2.42

Question: What about the IC50 (NCIH460) of the same compound?
Answer: 43 ± 20 µM

Question: What about the IC50 (HCT116) of the same compound?
Answer: 94 ± 0.1 µM

Question: What about the IC50 (HSV-1) of the same compound?
Answer: 23.4 µM
